Experimental data as given in publication PMC11720353, “Clove Essential Oil as a Source of Antitumoral Compounds Capable of Crossing the Blood–Brain Barrier: A Focus on the Effects of β-Caryophyllene and Eugenol in a Glioblastoma Cell Line” (International Journal of Molecular Sciences, 2024).
Where two headings read alike, the source gives them in different places.

How the values were obtained:
U87 cells [1] = test: Metabolic activity (Alamar blue) assay and HSA synergy analysis; format: cell-based, human; conditions: EU 2.5, 25, 200 µM or BCA 1.25, 12.5, 125 µM alone, 24-72 h
Method: To evaluate the cytotoxic/antiproliferative potential of BCA and/or EU, the U87 and HMC3 cells were seeded, in triplicate, into 48-well culture plates (4 × 10^4 cells/well). After 24 h, the medium was replaced, and the cells were treated either with the vehicle (ethanol) or with different concentrations of EO single molecules, diluted in ethanol alone ([…]; BCA: 1.25 µM, µM, 125 µM) or in combination (EU 2 µM and BCA 1.25 µM; EU 20 µM and BCA 12.5 µM; and EU 200 µM and BCA 125 µM) in order to evaluate the possible synergistic effects. The final concentration of ethanol in the cell medium was kept lower than 0.1%. Non-treated cells were considered the control condition. Metabolic activity was evaluated using a modified Alamar blue® assay, as previously described. […] After 2 h of incubation at 5% CO2 and 37 °C, the absorbance was read at 570 and 600 nm in a BioTeck (BioTek Instruments, Inc., Winooski, VT, USA). The absorbance results were obtained using the Gen5 program. The metabolic activity was then calculated by the following equation: Metabolicactivity %=A570−A600 oftreated cells/A570−A600 ofcontrol cells×100 All data were analyzed using the software GraphPad Prism v.9.00 (GraphPad Software, San Diego, CA, USA). All in vitro experiments were performed in triplicate, and the acquired results were expressed as means ± SEM. […]

U87 cells [2] = test: Clonogenic cell survival assay; format: cell-based, human; conditions: EU 200 µM, BCA 125 µM, alone or in combination, 14 days
Method: An evaluation of the antiproliferative effect via clonogenic assay on the tumoral U87 cells was performed using an adapted protocol from the previously described procedure. Briefly, U87 cells (0.8 × 10^3 cells/well) were seeded into 6-well plates and incubated for 24 h. After the incubation, based on the results obtained from the cell viability assay and synergistic score, the cells were treated either with EO single compounds diluted in ethanol alone (EU 200 µM and BCA 125 µM) or in combination for 14 days with the media being changed every 2/3 days. The cells without treatment were considered the control condition. Following the incubation, the cells were washed with PBS, fixed with paraformaldehyde (PFA) and stained with 0.1% crystal violet solution. The number of colonies was counted by microscopy, and the surviving fraction (SF) was calculated as the mean colonies/number of cells seeded.

U87 cells [3] = test: Cell death assay (Annexin V/PI, flow cytometry); format: cell-based, human; conditions: EU 200 µM, BCA 125 µM, alone or in combination, 24 h
Method: (§4) HMC3 and U87 cells were seeded in duplicate into 12-well plates (10 × 10^4 cells/well). After 24 h of incubation at 37 °C and 5% CO2, the medium was replaced, and the cells were treated either with EU (200 µM) or BCA (125 µM), alone and in combination (EU 200 µM + BCA 125 µM). Following the 24 h treatment, the cells were co-stained with AV-APC and PI according to the manufacturer’s protocol (Biolegend, San Diego, CA, USA). Briefly, the cells were resuspended in binding buffer (100 µL) and incubated with AV-APC solution (5 µL) and PI solution (2 µL) for 15 min at room temperature. Then, the cells were diluted in a binding buffer (400 µL). A six-parameter, four-color FACSCalibur flow cytometer (Becton Dickinson, San Jose, CA, USA) was used, and at least 10,000 events were collected by acquisition using CellQuest software (Becton Dickinson, San Jose, CA, USA). The results were analyzed with the Paint-a-Gate software and expressed in percentage (%).

HMC3 cells [4] = test: Cell death assay (Annexin V/PI, flow cytometry); format: cell-based, human; conditions: EU 200 µM, BCA 125 µM, alone or in combination, 24 h
Method: as §4

HMC3 cells [5] = test: Cell cycle analysis (PI/RNase, flow cytometry); format: cell-based, human; conditions: EU 200 µM, BCA 125 µM, alone or in combination, 24 h
Method: (§1) Analysis of the effect of BCA and/or EU on the cell cycle was assessed with flow cytometry using propidium iodide (PI)/RNase solution, according to the manufacturer’s protocol (Immunostep, Salamanca, Spain), as previously described. HMC3 and U87 cells (30 × 10^4 cells/well) were seeded in triplicate into 6-well plates and incubated for 24 h at 37 °C and 5% CO2. Thereafter, the cells were treated either with EU (200 µM) or BCA (125 µM) alone or in combination (EU 200 µM + BCA 125 µM). After 24 h, the cells were detached and fixed in 70% ethanol for 60 min at 4 °C, washed twice with PBS, and then stained with 500 µL of PI/RNase solution. The results were acquired using CellQuest software and expressed as the calculated percentage of the cell population in each cell cycle phase (G0/G1, S and G2/M) according to the PI intensity.

U87 cells [6] = test: Cell cycle analysis (PI/RNase, flow cytometry); format: cell-based, human; conditions: EU 200 µM, 24 h
Method: as §1

HMC3 cells [7] = test: Quantitative real-time PCR of mRNA levels; format: cell-based, human; conditions: 24 h
Method: (§2) An analysis of the genes involved in angiogenesis, tumor progression and proliferation were performed. In particular, we analyzed the genes involved in the cell cycle and in three different apoptotic pathways: B-cell lymphoma-2 (BCL2), Bcl-2-like protein 1 (BCL2L1), Bcl-2 Associated X-protein (BAX), BCL2 Antagonist/Killer 1 (BAK-1) and Caspase 9 (CASP9) as the key genes of the intrinsic mitochondrial pathway; and Phosphatase and tensin homolog (PTEN), Tumor protein p53 (TP53), Murine double minute 2 (MDM2), Cyclin-dependent kinase 4 (CDK4) and Vascular endothelial growth factor A (VEGFA) mRNA levels were assessed by quantitative real-time PCR (qRT-PCR). HMC3 and U87 cells were seeded with a density of 1 × 10^6 cells per well and incubated for 24 h at 37 °C and 5% CO2. Thereafter, the cells were treated either with EU (200 μM) or BCA (125 μM) alone and in combination (EU 200 μM + BCA 125 μM). Total RNA was extracted using the TripleXtractor solution (GRISP, Lisbon, Portugal) according to the manufacturer's protocol. RNA was converted into cDNA through the […] Synthesis Supermix (GRISP, Lisbon, Portugal). Each optimized reaction was performed using […] SYBR Green Mastermix 2X with […], Lisbon, Portugal) and subjected to the amplification protocol described by the manufacturer, using a melting temperature of 60 °C. The relative gene expression was determined by the 2^-ΔΔCt method and normalized on Glyceraldehyde-3-Phosphate Dehydrogenase (GAPDH), which was the endogenous reference and relative to the untreated cells (control condition).

U87 cells [8] = test: Quantitative real-time PCR of mRNA levels; format: cell-based, human; conditions: 24 h
Method: as §2

HMC3 cells [9] = test: Inflammatory cytokines in conditioned media (Luminex/BioPlex); format: cell-based, human; conditions: EU 200 µM, BCA 125 µM, alone or in combination, 24 h
Method: (§3) In order to determine the impact of BCA and/or EU on inflammatory cytokines levels, cytokine expression analyses (L-6, IL-4, IL-8 and TNF-α) were performed using a customized detection panel purchased from Bio-techne (Minneapolis, MN, USA). The cells were seeded, in triplicate, into 24-well culture plates (8 × 10^4 cells/well). After 24 h, the medium was replaced and the cells were treated either with the vehicle (ethanol) or with different concentrations of EO single compounds alone (EU: 2 µM, 20 µM, 200 µM; and BCA: 1.25 µM, 12.5 µM, 125 µM) or in combination (EU 2 µM + BCA 1.25 µM; EU 20 µM + BCA 12.5 µM; and EU 200 µM + BCA 125 µM). The final concentration of ethanol in the cell medium was kept lower than 0.1%. The ethanol 0.1%-treated cells were considered the control condition. After the 24 h treatment, supernatants were collected and centrifuged at 4,000× g for 10 min, and the samples were analyzed with the BioPlex 200 instrument (BioRad®, Hercules, CA, USA) following the manufacturer’s protocol.

U87 cells [10] = test: as above; format: cell-based, human; conditions: EU 200 µM, BCA 125 µM, alone or in combination, 24 h
Method: as §3

[11] = cited from earlier work
[12] = EU 200 µM, BCA 125 µM, alone or in combination

C=CCc1ccc(O)c(OC)c1 [EU, 4-allyl-2-methoxyphenol]
reduction in metabolic activity, single compounds (U87 cells [1]): No reduction
decrease of clonal growth / colony formation with respect to control (U87 cells [2]): −59.5%
live (viable) cells, change with respect to control (U87 cells [3]): did not affect
cell viability (HMC3 cells [4]): did not affect
effect on cell cycle (HMC3 cells [5]): no effects
effect on cell cycle (U87 cells [6]): no significant effect
PTEN mRNA expression, change vs control (HMC3 cells [7]; EU 200 µM or BCA 125 µM): +42.2%
BAK1 mRNA expression, change vs control (HMC3 cells [7]; [12]): no effect
BAX mRNA expression, change vs control (HMC3 cells [7]; [12]): −29.7%
BCL2L1 mRNA expression, change vs control (HMC3 cells [7]; [12]): −34.1%
BCL2 mRNA expression, change vs control (HMC3 cells [7]; [12]): −61.2%
CASP9 mRNA expression, change vs control (HMC3 cells [7]; [12]): no effect
CDK4 mRNA levels, change vs control (HMC3 cells [7]; [12]): no effects
MDM2 mRNA expression, change vs control (HMC3 cells [7]; [12]): −61.2%
TP53 mRNA expression, change vs control (HMC3 cells [7]; [12]): no effect
VEGFA mRNA expression, change vs control (HMC3 cells [7]; [12]): −31.5%
PTEN mRNA expression, change vs control (U87 cells [8]; EU 200 µM or BCA 125 µM): +86.4%
BAK1 mRNA expression, change vs control (U87 cells [8]; [12]): +32.3%
BAX mRNA expression, change vs control (U87 cells [8]; [12]): +50.3%
BCL2L1 mRNA expression, change vs control (U87 cells [8]; [12]): −42.2%
BCL2 mRNA expression, change vs control (U87 cells [8]; [12]): −45.6%
CASP9 mRNA expression, change vs control (U87 cells [8]; [12]): no effect
MDM2 mRNA expression, change vs control (U87 cells [8]; [12]): no effect
TP53 mRNA expression, change vs control (U87 cells [8]; [12]): +143.6%
VEGFA mRNA expression, change vs control (U87 cells [8]; [12]): no effect
CDK4 mRNA levels, change vs control (U87 cells [8]; EU 200 µM, BCA 125 µM, alone or in combination, normalized to GAPDH): −49.1%
IL-4 levels, change vs control (HMC3 cells [9]): −26%
IL-4 levels, change vs control (U87 cells [10]): −31%
IL-6 secretion, change vs control (U87 cells [10]): None of the treatments modulated
IL-8 secretion, change vs control (U87 cells [10]): unaffected
ability to cross the blood–brain barrier ([11]; rat, in vivo): high aptitude to cross the blood–brain barrier

O=C/C=C/c1ccccc1 [cinnamaldehyde]
ability to permeate the CNS ([11]; rat, not told, po): inability to permeate the CNS

C=C(C)[C@H]1CC=C(C)CC1 [limonene]
ability to permeate the CNS ([11]; after oral administration): inability to permeate the CNS
